Experimental data from patent publication US8859541B2, “6-alkynylpyridines” (Boehringer Ingelheim International GmbH, priority 2012, dated 2014).
pIC50: −log10 of the molar value.

molecular target: T1, XIAP BIR3 (Homo sapiens, UniProt P98170); experiment: XIAP BIR3 binding assay (DELFIA), displacement of SMAC peptide; details: GST-fusion BIR3 domain (aa 241 to 356) 10 nM, SMAC peptide 10 nM; activity of the (S)-isomers
T1 construct: covering amino acids 241 to 356; XIAP BIR3; made in house; host or cells: E. coli
How it was run: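 Each BIR3 domain (10 nM) incubated with biotinylated N-terminal SMAC peptide (10 nM) and compound for 1 h at room temp in Tris/NaCl buffer with BSA, DTT and Triton X-100. Captured on streptavidin plates; bound BIR3 detected by Eu-labelled anti-GST time-resolved fluorescence, giving IC50 values.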

T1 sequence (P98170 241-356): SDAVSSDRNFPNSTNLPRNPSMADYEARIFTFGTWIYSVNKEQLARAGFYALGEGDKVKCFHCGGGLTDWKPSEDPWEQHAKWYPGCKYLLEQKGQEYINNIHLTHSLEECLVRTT

Compared with `CC(N)C(=O)Nc1ccc(-c2cncc(F)c2)c(C#Cc2ccccc2)n1` (stereo not drawn) [Example 106, 2-amino-N-[5-(5-fluoropyridin-3-yl)-6-(2-phenylethynyl)pyridin-2-yl]propanamide], `CC(N)C(=O)Nc1ccc(-c2cccnc2)c(C#Cc2ccccc2)n1` (stereo not drawn) [Example 101, 2-amino-N-[6-(2-phenylethynyl)-5-pyridin-3-ylpyridin-2-yl]-propanamide] is 0.28 log units higher in pIC50: 6.61 for the first, 6.89 for the second. The second is the more potent here.

First: CNC(C)C(=O)Nc1cc(Cl)c(-c2cncnc2)c(C#Cc2ccccc2)n1 (stereo not drawn) [Example 202, N-[4-chloro-6-(2-phenylethynyl)-5-pyrimidin-5-ylpyridin-2-yl]-2-(methyl-amino)propanamide]
Second: CNC(C)C(=O)Nc1ccc(-c2cncnc2)c(C#Cc2ccc3ccccc3c2)n1 (stereo not drawn) [Example 23, 2-(methylamino)-N-[6-(2-naphthalen-2-ylethynyl)-5-pyrimidin-5-ylpyridin-2-yl]-propanamide]
The pIC50 of the first is 0.26 log units lower: 6.32 for the first, 6.58 for the second.

`CNC(C)C(=O)Nc1ccc(-c2cncnc2)c(C#Cc2ccc3ncccc3c2)n1` (stereo not drawn) [Example 19, 2-(methylamino)-N-[5-pyrimidin-5-yl-6-(2-quinolin-6-ylethynyl)pyridin-2-yl]-propanamide] and `CCNC(CC)C(=O)Nc1ccc(-c2cncnc2)c(C#Cc2ccc3ncccc3c2)n1` (stereo not drawn) [Example 169, 2-(ethylamino)-N-[5-pyrimidin-5-yl-6-(2-quinolin-6-ylethynyl)pyridin-2-yl]butanamide] are within 0.2 log units of each other in pIC50: 6.06 for the first, 5.94 for the second.

Going from `CNC(C)C(=O)Nc1ccc(-c2cccc3cnccc23)c(C#Cc2ccc(C)cc2)n1` (stereo not drawn) [Example 144, N-[5-isoquinolin-5-yl-6-[2-(4-methylphenyl)ethynyl]pyridin-2-yl]-2-(methylamino)propanamide] to `CNC(C)C(=O)Nc1ccc(-c2cccc3ccncc23)c(C#Cc2ccc3ncccc3c2)n1` (stereo not drawn) [Example 22, N-[5-isoquinolin-8-yl-6-(2-quinolin-6-ylethynyl)pyridin-2-yl]-2-(methylamino)propan-amide], the pIC50 falls from 6.40 to 5.89 (0.51 log units).

`CNC(C)C(=O)Nc1ccc(-c2c(C)nc3ccccn23)c(C#Cc2nc3ccccc3s2)n1` (stereo not drawn) [Example 67, N-[6-[2-(1,3-benzothiazol-2-yl)-ethynyl]-5-(2-methyl-imidazo[1,2-a]pyridin-3-yl)-pyridin-2-yl]-2-(methylamino)-propanamide] and `CNC(C)C(=O)Nc1ccc(-c2c(C)nc3ccccn23)c(C#Cc2ccc3nc(OC)ccc3c2)n1` (stereo not drawn) [Example 73, N-[6-[2-(2-methoxyquinolin-6-yl)ethynyl]-5-(2-methyl-imidazo[1,2-a]pyridin-3-yl)-pyridin-2-yl]-2-(methylamino)-propanamide] are within 0.2 log units of each other in pIC50: 6.57 for the first, 6.42 for the second.

Going from `CNC(C)C(=O)Nc1ccc(-c2ccc([N+](=O)[O-])nc2)c(C#Cc2ccccc2)n1` (stereo not drawn) [Example 181, 2-(methylamino)-N-[5-(6-nitropyridin-3-yl)-6-(2-phenyl-ethynyl)pyridin-2-yl]propanamide] to `CNC(C)C(=O)Nc1ccc(-c2cccc(F)c2F)c(C#Cc2ccccc2)n1` (stereo not drawn) [Example 139, N-[5-(2,3-difluorophenyl)-6-(2-phenylethynyl)pyridin-2-yl]-2-(methylamino)propanamide], the pIC50 falls from 6.65 to 5.85 (0.80 log units).

Going from `Cc1cc(C#Cc2ccccc2)nc(NC(=O)C(C)N)c1` (stereo not drawn) [Example 200, 2-amino-N-[4-methyl-6-(2-phenylethynyl)pyridin-2-yl]propanamide] to `Cc1cccc(C#Cc2cccc(NC(=O)C(C)N)n2)c1` (stereo not drawn) [Example 221, 2-amino-N-[6-[2-(3-methylphenyl)ethynyl]pyridin-2-yl]propanamide], the pIC50 rises from 5.75 to 6.65 (0.90 log units). The second is the more potent here.

Going from `CNC(C)C(=O)Nc1ccc(-c2c(Cl)cncc2Cl)c(C#Cc2ccc3ncccc3c2)n1` (stereo not drawn) [Example 56, N-[5-(3,5-dichloropyridin-4-yl)-6-(2-quinolin-6-ylethynyl)-pyridin-2-yl]-2-(methylamino)-propanamide] to `CNC(C)C(=O)Nc1ccc(-c2c(C)ccc3ncccc23)c(C#Cc2ccc3ncccc3c2)n1` (stereo not drawn) [Example 24, 2-(methylamino)-N-[5-(6-methylquinolin-5-yl)-6-(2-quinolin-6-ylethynyl)pyridin-2-yl]propanamide], the pIC50 rises from 5.54 to 6.16 (0.62 log units). The second is the more potent here.

`CNC(C)C(=O)Nc1ccc(-c2cncc3ccccc23)c(C#Cc2ccc3occc3c2)n1` (stereo not drawn) [Example 16, N-[6-[2-(1-benzofuran-5-yl)-ethynyl]-5-isoquinolin-4-ylpyridin-2-yl]-2-(methyl-amino)propanamide] and `CNC(C)C(=O)Nc1ccc(-c2cncc3ccccc23)c(C#Cc2ccc3c(c2)OCC(=O)N3)n1` (stereo not drawn) [Example 5, N-[5-isoquinolin-4-yl-6-[2-(3-oxo-4H-1,4-benzoxazin-7-yl)-ethynyl]pyridin-2-yl]-2-(methylamino)propanamide] are within 0.2 log units of each other in pIC50: 6.26 for the first, 6.29 for the second.

Going from `CNC(C)C(=O)Nc1ccc(-c2cnc(SC)nc2)c(C#Cc2ccc3ccccc3c2)n1` (stereo not drawn) [Example 158, 2-(methylamino)-N-[5-(2-methylsulfanylpyrimidin-5-yl)-6-(2-naphthalen-2-ylethynyl)-pyridin-2-yl]propanamide] to `CNC(C)C(=O)Nc1ccc(-c2c(C)ncnc2C)c(C#Cc2ccc3ccccc3c2)n1` (stereo not drawn) [Example 173, N-[5-(4,6-dimethylpyrimidin-5-yl)-6-(2-naphthalen-2-ylethynyl)pyridin-2-yl]-2-(methylamino)propanamide], the pIC50 rises from 6.11 to 6.49 (0.38 log units).

Compared with `CC(N)C(=O)Nc1ccc(-c2cccc3cccnc23)c(C#Cc2ccccc2)n1` (stereo not drawn) [Example 135, 2-amino-N-[6-(2-phenylethynyl)-5-quinolin-8-ylpyridin-2-yl]-propanamide], `CNC(C)C(=O)Nc1ccc(-c2nccc3ccccc23)c(C#Cc2ccccc2)n1` (stereo not drawn) [Example 179, N-[5-isoquinolin-1-yl-6-(2-phenylethynyl)pyridin-2-yl]-2-(methylamino)propanamide] is 0.89 log units lower in pIC50: 6.31 for the first, 5.42 for the second.

Compared with `CNC(C)C(=O)Nc1ccc(-c2cncnc2C)c(C#Cc2ccc3cncnc3c2)n1` (stereo not drawn) [Example 25, 2-(methylamino)-N-[5-(4-methylpyrimidin-5-yl)-6-(2-quinazolin-7-ylethynyl)-pyridin-2-yl]propanamide], `CNC(C)C(=O)Nc1ccc(-c2cncnc2)c(C#Cc2ccc(OC)c(C#N)c2)n1` (stereo not drawn) [Example 12, N-[6-[2-(3-cyano-4-methoxyphenyl)ethynyl]-5-pyrimidin-5-ylpyridin-2-yl]-2-(methylamino)propanamide] is 0.35 log units lower in pIC50: 6.19 for the first, 5.84 for the second. The first is the more potent here.

Going from `CC(N)C(=O)Nc1cccc(C#Cc2ccc(F)cc2F)n1` (stereo not drawn) [Example 210, 2-amino-N-[6-[2-(2,4-difluorophenyl)ethynyl]pyridin-2-yl]propanamide] to `CC(N)C(=O)Nc1cccc(C#Cc2ccc(F)cc2)n1` (stereo not drawn) [Example 219, 2-amino-N-[6-[2-(4-fluorophenyl)ethynyl]pyridin-2-yl]propanamide], the pIC50 rises from 5.58 to 6.44 (0.86 log units). The second is the more potent here.

Going from `Cc1ccc(C#Cc2nc(NC(=O)C(C)N)cc3ccccc23)cc1` (stereo not drawn) [Example 205, 2-amino-N-[1-[2-(4-methyl-phenyl)ethynyl]isoquinolin-3-yl]propanamide] to `CC(N)C(=O)Nc1cc2ccccc2c(C#Cc2ccc(Cl)cc2)n1` (stereo not drawn) [Example 207, 2-amino-N-[1-[2-(4-chlorophenyl)ethynyl]-isoquinolin-3-yl]propan-amide], the pIC50 falls from 5.64 to 5.37 (0.27 log units).

Compared with `CNC(C)C(=O)Nc1ccc(-c2cnccc2OC)c(C#Cc2ccc3ccccc3c2)n1` (stereo not drawn) [Example 154, N-[5-(4-methoxypyridin-3-yl)-6-(2-naphthalen-2-ylethynyl)-pyridin-2-yl]-2-(methylamino)-propanamide], `CNC(C)C(=O)Nc1ccc(-c2c(F)ccc3ccc(C)nc23)c(C#Cc2ccccc2)n1` (stereo not drawn) [Example 162, N-[5-(7-fluoro-2-methylquinolin-8-yl)-6-(2-phenylethynyl)pyridin-2-yl]-2-(methylamino)propan-amide] is 0.50 log units lower in pIC50: 6.24 for the first, 5.74 for the second. The first is the more potent here.

`Cc1cc(C)cc(C#Cc2cccc(NC(=O)C(C)N)n2)c1` (stereo not drawn) [Example 235, 2-amino-N-[6-[2-(3,5-dimethylphenyl)ethynyl]pyridin-2-yl]propanamide] and `Cc1ccc(C#Cc2cccc(NC(=O)C(C)N)n2)cc1` (stereo not drawn) [Example 209, 2-amino-N-[6-[2-(4-methylphenyl)ethynyl]pyridin-2-yl]propanamide] are within 0.2 log units of each other in pIC50: 5.66 for the first, 5.84 for the second.

Going from `CC(N)C(=O)Nc1cccc(C#Cc2c(Cl)cccc2Cl)n1` (stereo not drawn) [Example 236, 2-amino-N-[6-[2-(2,6-dichlorophenyl)ethynyl]pyridin-2-yl]propanamide] to `CC(N)C(=O)Nc1ccc(C2CCCC2)c(C#Cc2ccccc2)n1` (stereo not drawn) [Example 166, 2-amino-N-[5-cyclopentyl-6-(2-phenylethynyl)pyridin-2-yl]-propan-amide], the pIC50 rises from 5.70 to 6.05 (0.35 log units). The second is the more potent here.

First: CNC(C)C(=O)Nc1ccc(N(C)S(=O)(=O)c2ccccc2)c(C#Cc2ccccc2)n1 (stereo not drawn) [Example 243, N-[5-[benzenesulfonyl(methyl)amino]-6-(2-phenylethynyl)pyridin-2-yl]-2-(methylamino)propanamide]
Second: CNC(C)C(=O)Nc1ccc(-c2cnn(C)c2-c2ccccc2)c(C#Cc2ccccc2)n1 (stereo not drawn) [Example 190, 2-(methylamino)-N-[5-(1-methyl-5-phenylpyrazol-4-yl)-6-(2-phenylethynyl)pyridin-2-yl]-propanamide]
The pIC50 of the first is 0.24 log units higher: 6.80 for the first, 6.56 for the second. The first is the more potent here.

`CNC(C)C(=O)Nc1ccc(-c2cncnc2)c(C#Cc2ccc3c(c2)C(=O)CCO3)n1` (stereo not drawn) [Example 11, 2-(methylamino)-N-[6-[2-(4-oxo-2,3-dihydrochromen-6-yl)ethynyl]-5-pyrimidin-5-ylpyridin-2-yl]propanamide] and `CCNC(CC)C(=O)Nc1ccc(-c2cncnc2)c(C#Cc2ccc3ncccc3c2)n1` (stereo not drawn) [Example 170, 2-(ethylamino)-N-[5-pyrimidin-5-yl-6-(2-quinolin-6-ylethynyl)pyridin-2-yl]-butanamide] are within 0.2 log units of each other in pIC50: 5.92 for the first, 5.86 for the second.

`CNC(C)C(=O)Nc1ccc(-c2c(C)nc3ccccn23)c(C#Cc2ccc(OC)c3ncccc23)n1` (stereo not drawn) [Example 85, N-[6-[2-(8-methoxyquinolin-5-yl)ethynyl]-5-(2-methyl-imidazo[1,2-a]pyridin-3-yl)-pyridin-2-yl]-2-(methylamino)-propanamide] was tested, and the pIC50 was 6.59.
